{"source": "patent EP1377579B1", "about": "(Aventis Pharmaceuticals Inc., priority 2000, dated 2002)", "key": {"[1]": {"tested_on": "PC-3", "test": "In vitro proliferation assay (MTT), PC-3", "assay_type": "cell-based, human", "settings": "Homo sapiens, PC-3, MTT assay; value (SD, n) where given; read-out: PC-3 Prostate (IC50 µM)", "experimental": "(§1) The proliferation of tumor cells can be measured using a tetrazolium salt-based assay known as the MTT (3-[4,5-Dimethylthiazol-2-yl]-2,5-diphenyltetrazolium bromide) assay. […] For the assay, the cell lines are plated onto 96 well plates at 1000 to 2500 cells/well (depending on the properties of the individual cell lines), left to attach and recover overnight. […] After 3 days, the cells are incubated with MTT dye (3-[4,5-Dimethylthiazol-2-yl]-2,5-diphenyltetrazolium bromide, Sigma # M5655, 10 mg/ml in Hank's Buffered Saline) to estimate the amount of live cells remaining vs. concentration for the test compounds. […] The MTT and culture medium is then removed from the cultures and 200 µl of DMSO is added to solubilize the dye from the cell layer. The absorbance at 570 nm is determined for each culture using a Spectramax plate reader (Molecular Devices).\n(§2) IC50s were determined from the raw data from either the MTT or SRB assays.\n(§3) All of the cell lines were obtained from American Type Tissue Collection, with the ATCC accession number in parentheticals. MCF-7 and MDA-MB-231 cells were grown in improved minimum essential medium (Biofluids) without phenol red, supplemented with 5 % fetal bovine serum, 0.01 mg/ml gentamicin and 3 mM L-glutamine."}, "[2]": {"target": "cdk1/cyclin B (Homo sapiens, UniProt P06493)", "sequence (P06493 whole entry)": "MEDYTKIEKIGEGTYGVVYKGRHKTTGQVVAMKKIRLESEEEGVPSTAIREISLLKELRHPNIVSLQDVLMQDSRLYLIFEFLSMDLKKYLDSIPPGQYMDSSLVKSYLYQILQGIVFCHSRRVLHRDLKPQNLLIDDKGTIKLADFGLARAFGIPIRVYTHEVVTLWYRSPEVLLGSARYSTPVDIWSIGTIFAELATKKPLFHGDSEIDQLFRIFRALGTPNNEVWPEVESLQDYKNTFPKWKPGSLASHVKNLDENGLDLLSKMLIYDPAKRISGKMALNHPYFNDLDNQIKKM", "sequence (P14635 whole entry partner)": "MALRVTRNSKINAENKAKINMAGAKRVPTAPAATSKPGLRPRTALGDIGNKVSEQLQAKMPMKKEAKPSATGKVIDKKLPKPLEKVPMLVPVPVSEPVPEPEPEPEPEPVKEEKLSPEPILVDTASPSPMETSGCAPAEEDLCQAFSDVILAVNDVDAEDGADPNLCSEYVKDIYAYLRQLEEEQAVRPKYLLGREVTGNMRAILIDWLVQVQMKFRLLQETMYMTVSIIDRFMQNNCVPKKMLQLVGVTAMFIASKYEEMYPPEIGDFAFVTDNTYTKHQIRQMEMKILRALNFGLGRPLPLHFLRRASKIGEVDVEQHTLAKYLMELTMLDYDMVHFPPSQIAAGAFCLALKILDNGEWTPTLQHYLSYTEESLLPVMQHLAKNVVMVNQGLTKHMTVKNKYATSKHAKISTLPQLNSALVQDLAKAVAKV", "test": "Cyclin-dependent kinase assay, cdk1/cyclin B", "settings": "CDK1 IC50, nM, Histone H1, 10 µM ATP"}, "[3]": {"target": "cdk4/cyclin D1 (Homo sapiens, UniProt P11802)", "sequence (P11802 whole entry)": "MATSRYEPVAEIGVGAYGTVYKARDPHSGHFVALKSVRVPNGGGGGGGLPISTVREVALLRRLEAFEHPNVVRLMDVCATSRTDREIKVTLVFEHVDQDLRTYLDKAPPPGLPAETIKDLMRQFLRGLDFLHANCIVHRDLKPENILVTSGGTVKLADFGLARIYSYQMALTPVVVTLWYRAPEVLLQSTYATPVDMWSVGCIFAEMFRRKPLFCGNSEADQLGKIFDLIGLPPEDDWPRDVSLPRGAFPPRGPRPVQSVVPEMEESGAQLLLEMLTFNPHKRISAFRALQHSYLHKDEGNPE", "sequence (P24385 whole entry partner)": "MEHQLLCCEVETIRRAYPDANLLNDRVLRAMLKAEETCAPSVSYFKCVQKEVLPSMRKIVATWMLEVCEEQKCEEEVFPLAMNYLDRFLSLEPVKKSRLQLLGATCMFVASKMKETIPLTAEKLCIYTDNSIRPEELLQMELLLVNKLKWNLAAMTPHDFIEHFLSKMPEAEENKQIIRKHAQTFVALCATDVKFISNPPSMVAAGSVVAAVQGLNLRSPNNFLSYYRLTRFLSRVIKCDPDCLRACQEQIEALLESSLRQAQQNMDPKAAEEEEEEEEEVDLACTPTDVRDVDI", "test": "Cyclin-dependent kinase assay, cdk4/cyclin D1", "assay_type": "biochemical", "settings": "cyclin D1/cdk4; GST-pRb substrate, 10 µM ATP"}, "[4]": {"target": "cdk2/cyclin E (Homo sapiens, UniProt P24941)", "test": "Cyclin-dependent kinase assay, cdk2/cyclin E", "settings": "CDK2 IC50, nM, GST-pRb substrate, 10 µM ATP", "description": "The insect cell (Sf9) expression is optimized for each of the CDK/cyclin pairs according to the manufacturer's protocols (Life Technologies).\nThe viruses are added to the cells and the culture is incubated at 27°C for the desired time. The cells are harvested by centrifugation at 3000 rpm for 10 minutes. The cells are snap frozen on dry ice and stored at - 80°C.\nCell extracts are made following a standard procedure. The cell pellet is resuspended in lysis buffer (50 mM HEPES, pH 8.0, 10 mM MgCl2, 1 mM DTT, 2.5 mM EGTA, 1 mM EDTA, 10 mM β-glycerophosphate, 1 mM sodium vanadate, 1 mM sodium fluoride, 1 x Protease inhibitor cocktail). The cells are lysed using the microfluidizer (Microfluidics) for 20 minutes. Cell debris is removed by centrifugation at 100,000 x g. The cell extracts are aliquoted in 1 ml aliquots, frozen on dry ice, and stored at -80°C.\nThe kinase reactions are performed following a standard procedure. The enzyme and inhibitor are diluted in kinase buffer (50 mM HEPES, pH 8.0, 10 mM MgCl2, 2.5 mM EGTA, 10 mM β-glycerophosphate, 1 mM sodium vanadate, 1 mM sodium fluoride, and 1 mM DTT) and pre-incubated for 30 minutes. The cdk2 and cdk4 enzyme activities are assayed using 500 ng of the GST-pRb substrate (see description below) in the presence of 10 µM cold ATP and 1 µCi of [γ-^33P] ATP for 30 minutes at room temperature. […] The reactions are terminated by the addition of 50 µL of 10 mM cold ATP to stop the reactions. The reactions are transferred to a pre-soaked 96-well multi-screen plate containing 30 µL of 100% TCA per well. After incubation for one hour at room temperature, the plates are washed twice with 200 µl of 20% TCA, followed by 200 µl of 10% TCA and finally with 200 µl of 5% TCA. After drying the plates at room temperature, the filter plates are placed in adapter plates (Packard) and 40 µl of Microscint-O® (Packard) is added to each well."}, "[5]": {"tested_on": "MDA-MB-435", "test": "In vitro proliferation assay (MTT), MDA-MB-435", "assay_type": "cell-based, human", "settings": "Homo sapiens, MDA-MB-435, MTT assay; value (SD, n) where given; read-out: MB-435 Breast (IC50 µM)", "experimental": "as §1, §2, §3"}}, "note": "Structures can show the parent of a compound that is named as a salt."}
{"smiles": "C=CCCC(=O)N1CCC(Nc2nc(N[C@H]3CC[C@H](N)CC3)nc3c2ncn3C2CCCC2)CC1", "note": "[compound 49, trans-1-{4-[2-(4-Amino-cyclohexylamino)-9-cyclopentyl-9H-purin-6-ylamino]-piperidin-1-yl}-pent-4-en-1-one dihydrochloride]", "values": [{"measurement": "IC50", "setting": "[1]", "value": 0.92, "unit": "µM"}, {"measurement": "IC50", "setting": "[2]", "value": 121, "unit": "nM"}, {"measurement": "IC50", "setting": "[3]", "value": 88, "unit": "nM"}, {"measurement": "IC50", "setting": "[4]", "value": 49, "unit": "nM"}, {"measurement": "IC50", "setting": "[5]", "value": 1.23, "unit": "µM"}]}
{"smiles": "CC(C)(C)CC(=O)N1CCC(Nc2nc(N[C@H]3CC[C@H](N)CC3)nc3c2ncn3C2CCCC2)CC1", "note": "[compound 51, trans-1-{4-[2-(4-Amino-cyclohexylamino)-9-cyclopentyl-9H-purin-6-ylamino]-piperidin-1-yl}-3,3-dimethyl-butan-1-one dihydrochloride]", "values": [{"measurement": "IC50", "setting": "[1]", "value": 0.5, "unit": "µM"}, {"measurement": "IC50", "setting": "[2]", "value": 109, "unit": "nM"}, {"measurement": "IC50", "setting": "[3]", "value": 99, "unit": "nM"}, {"measurement": "IC50", "setting": "[4]", "value": 65, "unit": "nM"}, {"measurement": "IC50", "setting": "[5]", "value": 0.42, "unit": "µM"}]}
{"smiles": "N[C@H]1CC[C@H](Nc2nc(NC3CCN(C(=O)Cc4ccccc4)CC3)c3ncn(C4CCCC4)c3n2)CC1", "note": "[compound 52, trans-1-{4-[2-(4-Amino-cyclohexylamino)-9-cyclopentyl-9H-purin-6-ylamino]-piperidin-1-yl}-2-phenyl-ethanone dihydrochloride]", "values": [{"measurement": "IC50", "setting": "[1]", "value": 0.69, "unit": "µM"}, {"measurement": "IC50", "setting": "[2]", "value": 40, "unit": "nM"}, {"measurement": "IC50", "setting": "[3]", "value": 350, "unit": "nM"}, {"measurement": "IC50", "setting": "[4]", "value": 59, "unit": "nM"}, {"measurement": "IC50", "setting": "[5]", "value": 0.87, "unit": "µM"}]}
{"smiles": "CCC(=O)N1CCC(Nc2nc(N[C@H]3CC[C@H](N)CC3)nc3c2ncn3C2CCCC2)CC1", "note": "[compound 53, trans-1-{4-[2-(4-Amino-cyclohexylamino)-9-cyclopentyl-9H-purin-6-ylamino]-piperidin-1-yl}-propan-1-one dihydrochloride]", "values": [{"measurement": "IC50", "setting": "[1]", "value": 0.88, "unit": "µM"}, {"measurement": "IC50", "setting": "[2]", "value": 40, "unit": "nM"}, {"measurement": "IC50", "setting": "[3]", "value": 934, "unit": "nM"}, {"measurement": "IC50", "setting": "[4]", "value": 80, "unit": "nM"}, {"measurement": "IC50", "setting": "[5]", "value": 1.17, "unit": "µM"}]}
{"smiles": "CCCCCC(=O)N1CCC(Nc2nc(N[C@H]3CC[C@H](N)CC3)nc3c2ncn3C2CCCC2)CC1", "note": "[compound 54, trans-1-{4-[2-(4-Amino-cyclohexylamino)-9-cyclopentyl-9H-purin-6-ylamino]-piperidin-1-yl}-hexan-1-one dihydrochloride]", "values": [{"measurement": "IC50", "setting": "[1]", "value": 0.59, "unit": "µM"}, {"measurement": "IC50", "setting": "[2]", "value": 45, "unit": "nM"}, {"measurement": "IC50", "setting": "[3]", "value": 315, "unit": "nM"}, {"measurement": "IC50", "setting": "[4]", "value": 49, "unit": "nM"}, {"measurement": "IC50", "setting": "[5]", "value": 0.6, "unit": "µM"}]}
{"smiles": "N[C@H]1CC[C@H](Nc2nc(NC3CCN(C(=O)C4CCCCC4)CC3)c3ncn(C4CCCC4)c3n2)CC1", "note": "[compound 55, trans-1-{4-[2-(4-Amino-cyclohexylamino)-9-cyclopentyl-9H-purin-6-ylamino]-piperidin-1-yl}-1-cyclohexyl-methanone dihydrochloride]", "values": [{"measurement": "IC50", "setting": "[1]", "value": 0.57, "unit": "µM"}, {"measurement": "IC50", "setting": "[2]", "value": 99, "unit": "nM"}, {"measurement": "IC50", "setting": "[3]", "value": 621, "unit": "nM"}, {"measurement": "IC50", "setting": "[4]", "value": 56, "unit": "nM"}, {"measurement": "IC50", "setting": "[5]", "value": 0.41, "unit": "µM"}]}
{"smiles": "CCCCC(=O)N1CCC(Nc2nc(N[C@H]3CC[C@H](N)CC3)nc3c2ncn3C2CCCC2)CC1", "note": "[compound 56, trans-1-{4-[2-(4-Amino-cyclohexylamino)-9-cyclopentyl-9H-purin-6-ylamino]-piperidin-1-yl}-pentan-1-one dihydrochloride]", "values": [{"measurement": "IC50", "setting": "[1]", "value": 0.69, "unit": "µM"}, {"measurement": "IC50", "setting": "[2]", "value": 43, "unit": "nM"}, {"measurement": "IC50", "setting": "[3]", "value": 909, "unit": "nM"}, {"measurement": "IC50", "setting": "[4]", "value": 53, "unit": "nM"}, {"measurement": "IC50", "setting": "[5]", "value": 0.61, "unit": "µM"}]}
{"smiles": "CCCC(=O)N1CCC(Nc2nc(N[C@H]3CC[C@H](N)CC3)nc3c2ncn3C2CCCC2)CC1", "note": "[compound 58, trans-1-{4-[2-(4-Amino-cyclohexylamino)-9-cyclopentyl-9H-purin-6-ylamino]-piperidin-1-yl}-butan-1-one dihydrochloride]", "values": [{"measurement": "IC50", "setting": "[1]", "value": 0.94, "unit": "µM"}, {"measurement": "IC50", "setting": "[2]", "value": 52, "unit": "nM"}, {"measurement": "IC50", "setting": "[3]", "value": 357, "unit": "nM"}, {"measurement": "IC50", "setting": "[4]", "value": 68, "unit": "nM"}, {"measurement": "IC50", "setting": "[5]", "value": 1.01, "unit": "µM"}]}
{"smiles": "CC(C)C(=O)N1CCC(Nc2nc(N[C@H]3CC[C@H](N)CC3)nc3c2ncn3C2CCCC2)CC1", "note": "[compound 59, trans-1-{4-[2-(4-Amino-cyclohexylamino)-9-cyclopentyl-9H-purin-6-ylamino]-piperidin-1-yl) -2-methyl-propan-1-one dihydrochloride]", "values": [{"measurement": "IC50", "setting": "[1]", "value": 0.96, "unit": "µM"}, {"measurement": "IC50", "setting": "[2]", "value": 93, "unit": "nM"}, {"measurement": "IC50", "setting": "[3]", "value": 721, "unit": "nM"}, {"measurement": "IC50", "setting": "[4]", "value": 52, "unit": "nM"}, {"measurement": "IC50", "setting": "[5]", "value": 0.62, "unit": "µM"}]}
